From ChEMBL document CHEMBL1201862, “PubChem BioAssay data set” (2004) come the findings set out here.

The target in assay [1] is T1, RNA-binding protein pos-1 (Caenorhabditis elegans, UniProt G5EF15).
T1 sequence (G5EF15 whole entry): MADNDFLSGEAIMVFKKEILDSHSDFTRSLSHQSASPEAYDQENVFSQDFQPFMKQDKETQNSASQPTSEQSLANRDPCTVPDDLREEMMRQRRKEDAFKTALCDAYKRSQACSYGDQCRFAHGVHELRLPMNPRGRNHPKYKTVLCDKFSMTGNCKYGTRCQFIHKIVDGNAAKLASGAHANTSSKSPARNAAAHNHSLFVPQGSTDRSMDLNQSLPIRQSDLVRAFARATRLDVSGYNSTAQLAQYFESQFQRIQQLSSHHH
Description: inhibitors of POS-1/mex-3 RNA binding, dose response, biochemical, fluorescence polarization (AID 1964).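 Further: purified POS-1 fused to maltose binding protein made in E. coli; potency of compounds blocking POS-1 binding to fluorescent RNA.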 Background: Polarisation of emitted light reports the rotation of a fluorescent probe.

The target in assay [2] is Bifunctional protein GlmU (Mycobacterium tuberculosis, UniProt P9WMN3). Description: Inhibitors of Mycobacterial Glucosamine-1-phosphate acetyl transferase (GlmU). Secondary screen. Details: species or system Mycobacterium tuberculosis H37Rv.
Another assay addresses Aurora kinase A (Homo sapiens, UniProt O14965). In kind it is functional.
The target of assay [3] is Mitogen-activated protein kinase 1 (Homo sapiens, UniProt P28482). In kind it is functional.
The target in assay [4] is Vascular endothelial growth factor receptor 3 (Homo sapiens, UniProt P35916). In kind it is functional.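 Further: value from a kinome-wide profiling panel, with FLT4 as the panel member.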

Calls of active or inactive are those of the source.

Sequence of Mitogen-activated protein kinase 1 (P28482 whole entry): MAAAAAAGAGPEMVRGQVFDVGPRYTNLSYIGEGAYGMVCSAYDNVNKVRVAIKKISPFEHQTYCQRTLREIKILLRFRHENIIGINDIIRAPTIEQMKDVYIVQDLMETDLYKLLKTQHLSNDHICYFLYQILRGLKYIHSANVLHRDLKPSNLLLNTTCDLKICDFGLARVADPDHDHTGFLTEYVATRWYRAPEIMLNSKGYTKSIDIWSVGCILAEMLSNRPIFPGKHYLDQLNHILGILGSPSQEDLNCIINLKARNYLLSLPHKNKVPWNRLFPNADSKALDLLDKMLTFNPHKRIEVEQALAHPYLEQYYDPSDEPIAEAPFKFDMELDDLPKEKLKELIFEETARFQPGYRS
Sequence of Bifunctional protein GlmU (P9WMN3 whole entry): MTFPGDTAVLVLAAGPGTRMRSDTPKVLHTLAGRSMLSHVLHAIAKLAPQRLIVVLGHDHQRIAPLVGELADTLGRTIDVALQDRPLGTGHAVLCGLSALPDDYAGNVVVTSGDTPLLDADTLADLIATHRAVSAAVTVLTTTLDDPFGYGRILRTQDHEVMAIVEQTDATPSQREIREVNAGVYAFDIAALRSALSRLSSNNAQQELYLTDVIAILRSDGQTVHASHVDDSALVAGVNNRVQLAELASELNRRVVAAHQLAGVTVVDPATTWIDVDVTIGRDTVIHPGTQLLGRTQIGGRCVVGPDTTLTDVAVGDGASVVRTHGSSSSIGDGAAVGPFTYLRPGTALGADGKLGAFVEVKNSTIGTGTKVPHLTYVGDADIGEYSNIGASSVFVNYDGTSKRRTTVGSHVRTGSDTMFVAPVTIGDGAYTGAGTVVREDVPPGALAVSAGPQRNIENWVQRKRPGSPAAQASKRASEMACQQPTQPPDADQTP
Sequence of Vascular endothelial growth factor receptor 3 (P35916 whole entry): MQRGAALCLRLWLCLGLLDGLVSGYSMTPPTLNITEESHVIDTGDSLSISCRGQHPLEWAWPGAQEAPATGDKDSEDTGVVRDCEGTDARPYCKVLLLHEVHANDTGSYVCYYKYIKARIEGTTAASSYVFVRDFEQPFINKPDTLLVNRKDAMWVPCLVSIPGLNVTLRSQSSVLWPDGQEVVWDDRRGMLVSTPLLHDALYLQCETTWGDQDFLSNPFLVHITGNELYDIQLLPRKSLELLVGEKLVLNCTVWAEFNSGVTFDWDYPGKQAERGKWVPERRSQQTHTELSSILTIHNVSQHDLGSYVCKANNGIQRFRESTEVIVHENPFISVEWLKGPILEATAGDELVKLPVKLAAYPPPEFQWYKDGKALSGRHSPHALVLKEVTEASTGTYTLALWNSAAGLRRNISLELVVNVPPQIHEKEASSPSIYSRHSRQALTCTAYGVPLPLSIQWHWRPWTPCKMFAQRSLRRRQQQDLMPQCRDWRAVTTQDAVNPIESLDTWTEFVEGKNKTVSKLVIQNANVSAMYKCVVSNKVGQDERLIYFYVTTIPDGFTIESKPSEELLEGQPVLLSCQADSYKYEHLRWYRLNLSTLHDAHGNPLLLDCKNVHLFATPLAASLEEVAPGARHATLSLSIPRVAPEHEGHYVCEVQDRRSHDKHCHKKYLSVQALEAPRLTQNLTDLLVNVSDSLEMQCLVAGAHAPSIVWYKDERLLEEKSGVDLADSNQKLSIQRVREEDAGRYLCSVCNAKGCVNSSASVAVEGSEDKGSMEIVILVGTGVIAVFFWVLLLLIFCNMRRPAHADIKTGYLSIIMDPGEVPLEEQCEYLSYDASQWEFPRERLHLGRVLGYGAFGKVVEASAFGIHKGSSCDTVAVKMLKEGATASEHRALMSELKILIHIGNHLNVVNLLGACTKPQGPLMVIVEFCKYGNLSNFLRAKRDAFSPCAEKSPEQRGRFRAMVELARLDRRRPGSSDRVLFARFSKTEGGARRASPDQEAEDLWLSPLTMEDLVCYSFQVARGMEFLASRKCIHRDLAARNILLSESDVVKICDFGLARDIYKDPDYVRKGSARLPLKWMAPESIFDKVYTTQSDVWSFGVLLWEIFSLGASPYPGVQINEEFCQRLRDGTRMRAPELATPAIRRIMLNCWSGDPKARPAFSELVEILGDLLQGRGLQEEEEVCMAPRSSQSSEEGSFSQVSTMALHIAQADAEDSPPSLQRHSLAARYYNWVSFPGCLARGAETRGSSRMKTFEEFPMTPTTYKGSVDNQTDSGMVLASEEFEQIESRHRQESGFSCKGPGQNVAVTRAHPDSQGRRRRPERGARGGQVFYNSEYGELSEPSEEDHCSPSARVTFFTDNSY
Sequence of Aurora kinase A (O14965 whole entry): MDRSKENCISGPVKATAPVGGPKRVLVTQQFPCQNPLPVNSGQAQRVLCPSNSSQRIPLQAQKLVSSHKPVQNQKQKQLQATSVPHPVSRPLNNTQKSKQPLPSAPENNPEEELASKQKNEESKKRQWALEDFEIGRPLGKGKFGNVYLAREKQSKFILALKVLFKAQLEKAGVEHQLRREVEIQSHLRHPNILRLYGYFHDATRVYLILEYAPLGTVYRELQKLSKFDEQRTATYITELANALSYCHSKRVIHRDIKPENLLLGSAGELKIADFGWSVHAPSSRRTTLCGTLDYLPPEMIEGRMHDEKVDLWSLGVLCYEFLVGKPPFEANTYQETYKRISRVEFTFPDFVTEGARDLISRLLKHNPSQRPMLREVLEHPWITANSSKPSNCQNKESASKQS

Broadly, the EC50 is the midpoint of the concentration-response curve. What is called IC50 is the concentration that gives 50% inhibition. With `Cc1ccc(/C=C2/C(=O)c3ccc(C(=O)O)cc3C2=O)o1`, the EC50 in assay [1] was 87.7 µM (active). The 50% inhibitory concentration (IC50) in assay [2] is 174 µM (active).
Usually Ki stands for the equilibrium dissociation constant of an inhibitor or competing ligand from its target. Turning to `Clc1cc(NC2CCCCC2)nc(-c2c[nH]c3ncccc23)n1`, the Ki at Aurora kinase A was > 1.58 µM (inactive); in assay [3] it was 7.94 µM (active); in assay [4], 1 µM (active).
